Test results from PubChem BioAssay (NCI).
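Cells were grown in 96-well plates and exposed to each compound for 48 hours at five concentrations; endpoints were interpolated linearly between bracketing concentrations, or set to the highest concentration if not reached. TGI denotes the concentration required for complete inhibition of growth.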

Key:
Test in all cases: NCI anticancer screen, dose series, 48 h
U251 CNS = tested on: U251 CNS
COLO 205 colon = tested on: COLO 205 colon
SK-MEL-5 melanoma = tested on: SK-MEL-5 melanoma
KM12 colon = tested on: KM12 colon
LOX IMVI melanoma = tested on: LOX IMVI melanoma
TK-10 renal = tested on: TK-10 renal
RXF 393 renal = tested on: RXF 393 renal
HS 578T breast = tested on: HS 578T breast
NCI/ADR-RES ovarian = tested on: NCI/ADR-RES ovarian
MDA-MB-435 = tested on: MDA-MB-435

| Structure (SMILES) | TGI (U251 CNS) | TGI (COLO 205 colon) | TGI (SK-MEL-5 melanoma) | TGI (KM12 colon) | TGI (LOX IMVI melanoma) | TGI (TK-10 renal) | TGI (RXF 393 renal) | TGI (HS 578T breast) | TGI (NCI/ADR-RES ovarian) | TGI (MDA-MB-435) |
| --- | --- | --- | --- | --- | --- | --- | --- | --- | --- | --- |
| CC1=C2C(c3ccccc3)(c3ccccc3)C3C=CC2(C=N3)N(C(=O)NC2CCCCC2)C1=O (stereo not given) | 30.6 µM | 29.3 µM | 30.5 µM | 32.1 µM | 29.5 µM | – | – | – | – | – |
| COc1ccc2c(c1)CC[C@@H]1C2CC[C@]2(C)C(=O)NC(=O)CC12 (stereo not given in full) | > 100 µM | > 100 µM | > 100 µM | > 100 µM | > 100 µM | > 100 µM | – | – | – | – |
| CCN(CC)CCCNC(=O)Cc1ccccc1Nc1c(Cl)cccc1Cl | 25.7 µM | 28.3 µM | 14.1 µM | 39.3 µM | 25.6 µM | 26.8 µM | 30.6 µM | – | – | – |
| CC[C@@H]1OC2(C)CC(S(=O)(=O)c3ccccc3)CC1O2 (stereo not given in full) | > 100 µM | > 100 µM | > 100 µM | > 100 µM | – | – | > 100 µM | – | – | – |
| COc1ccc(C2S/C(=C\c3ccc(OC)cc3OC)C(=O)N2NC(=O)Cc2ccccc2)cc1 (stereo not given) | > 100 µM | > 100 µM | > 100 µM | > 100 µM | > 100 µM | > 100 µM | > 100 µM | – | – | – |
| Cc1ccc(NC(=O)C(=O)Cc2nc3ccccc3o2)c(C)c1 | > 100 µM | > 100 µM | – | > 100 µM | > 100 µM | > 100 µM | > 100 µM | – | – | – |
| CCNCC(O)c1ccc(N)c([N+](=O)[O-])c1 (stereo not given) | > 100 µM | > 100 µM | > 100 µM | – | > 100 µM | > 100 µM | – | > 100 µM | > 100 µM | > 100 µM |
| CCOC(=O)C(C)(C)Oc1ccc2c(-c3ccc(Cl)cc3)cc(=O)oc2c1 | > 100 µM | > 100 µM | > 100 µM | – | > 100 µM | > 100 µM | > 100 µM | – | – | – |
| CCOC(=O)C(C[Si](C)(C)C)P(=O)(OCC)OCC (stereo not given) | > 100 µM | > 100 µM | > 100 µM | > 100 µM | > 100 µM | > 100 µM | > 100 µM | – | – | – |
| O=c1cccccc1NCCCCNc1cccccc1=O | > 100 µM | > 100 µM | 96.8 µM | > 100 µM | > 100 µM | > 100 µM | – | – | – | – |
| C[Si](C)(C)/C=C/CN1C(=O)CCC1O (stereo not given) | > 100 µM | > 100 µM | > 100 µM | > 100 µM | > 100 µM | > 100 µM | > 100 µM | – | – | – |
| O=c1[nH]c(=S)[nH]c(O)c1/C=C1\C=CC=N1 | 89.2 µM | 32 µM | > 100 µM | 39.6 µM | 46.2 µM | 37.7 µM | 9.6 µM | – | – | – |
| CN(O)C(=O)Cc1ccccc1 | > 100 µM | > 100 µM | > 100 µM | > 100 µM | > 100 µM | > 100 µM | > 100 µM | – | – | – |
| Cc1ccc(N2C(=O)/C(=C3\Sc4c(nc(C)[nH]c4=O)N3c3ccccc3)SC2=S)cc1 | 37.9 µM | > 100 µM | > 100 µM | – | 70.7 µM | 59.2 µM | – | – | – | – |
| O=[N+]([O-])c1ccccc1C1N2CCCCC2[C@@H]2c3[nH]c4ccccc4c3CCN12 (stereo not given in full) | 31.3 µM | 25.8 µM | 26.2 µM | – | – | 38.4 µM | 26.4 µM | – | – | – |
| CCC1(OC(C)=O)C(=O)OCc2c1cc1n(c2=O)Cc2cc3ccccc3nc2-1 (stereo not given) | 2.64 µM | > 100 µM | 4 µM | > 100 µM | 13.5 µM | > 100 µM | > 22.6 µM | – | – | – |
| O=C1C(c2ccccc2)=C(c2ccccc2)C(c2ccc(CCCCCCc3ccc(C4=C(c5ccccc5)C(=O)C(c5ccccc5)=C4c4ccccc4)cc3)cc2)=C1c1ccccc1 | > 100 µM | > 100 µM | > 100 µM | > 100 µM | – | > 100 µM | 79.7 µM | – | – | – |
| CC1(C)OCN(c2ccc(Cl)cc2)Cn2c1nc1ccccc12 | > 100 µM | 12 µM | 5.39 µM | > 54.1 µM | > 100 µM | > 100 µM | > 100 µM | – | > 100 µM | > 100 µM |
| CCCCCCCCCC(=O)CC(=O)c1c(O)cccc1O | 69.3 µM | 35.8 µM | – | > 100 µM | 49.6 µM | > 100 µM | 72.1 µM | – | – | – |
| O=c1c([Se]c2coc3ccccc3c2=O)coc2ccccc12 | 19.8 µM | 29.7 µM | 29.9 µM | 23.4 µM | 29.5 µM | 31.6 µM | 29.5 µM | – | – | – |
| O=C1C2=C(c3ccccc31)C(c1ccccc1Cl)N1C(=O)CSC1=N2 (stereo not given) | > 100 µM | > 100 µM | > 100 µM | > 100 µM | > 100 µM | > 100 µM | – | – | – | – |
